Test results published in patent publication US9359341B2, “Aldehyde derivative of substitute oxazolidinones” (WANBURY LTD., priority 2012, dated 2016).

How the values were obtained:
[1] = Intravenous and oral excretion profile in Wistar rats; format: in vivo; conditions: for Mean (ng) Urine: IV 1 mg/Kg, rivaroxaban in urine
Method: On the day before administration of the substance, a catheter for obtaining blood is implanted in the jugular vein of the experimental animals (male Wistar rats, body weight 200-250 g) under Isoflurane. anesthesia.
Urine and faeces are taken collected from metabolic cages over the course of 144 h after administration of the substance. The administration volume is 10 ml/kg for oral and 1 ml/kg for IV in male Wistar rats. Intravenous administration is via a formulation of 2% N—N Dimethyl acetamide/ethanol 10%/PEG400 (30%)/water for IV injection (58%) and via Tween80/PEG400/sterile water in the case of oral administration. Urine and faeces collection is 0-4, 4-8, 8-24, 24-48, 48-72, 72-96, 96-120, 120-144 in the case of IV and for oral administration.
Urine and faeces was processed and IS containing Acetonitrile is added to a defined urine/faeces and precipitated. After centrifugation, compound formula (B) and, where appropriate, known cleavage products of the compound formula (B) in the supernatant are determined quantitatively using a suitable LC/MS-MS method.
The measured urine and faeces concentrations are used to calculate parameters of the test substance and of the active ingredient compound (A) liberated there from, such as AUC and Cmax.
Acetonitrile containing IS is added to the study samples, calibration samples and QCs, and the protein is precipitated using acetonitrile. Vortexed and centrifuged and the supernatant is injected by LC-MS/MS (API 4000, AB Sciex). Chromatographic separation is carried out on an Shimadzu UFLC. The injection volume is 10 μl. The separation column used is a Phenomenex Gemini NX 4.6×5μ. 100 mm, adjusted to a temperature of 30° C. A binary mobile phase gradient at 800.mu·l/min is used (A: 0.1% formic acid in water, B: acetonitrile: API 4000, ESI Agilent 1100 column: Gemini Nx 100 mm×4.6 mm 5.μ; column temperature: 30° C.; eluent A: 0.1% formic acid in water, eluent B: acetonitrile; gradient: 0-2.5 min 95% A, 5% B; 2.5-2.6 min 5% A, 95% B; 2.6-4.2 min 95% A, 5% B; flow rate: 0.8 ml/min; ESI. Q1:464.098, Q3:144.255 The temperature of the Turbo V ion source is 500° C. The following MS instrument parameters are used: curtain gas 20 units, ion spray voltage 5 kV, gas 1 50 units gas 2 50 units, CAD gas 6 units. The substances are quantified by peak heights or areas using extracted ion chromatograms of specific MRM experiments.

CYP2C9 = CYP2C9 (Homo sapiens (Human), UniProt P11712); experiment: CYP inhibition assay; format: in vitro ADME; conditions: pooled human liver microsomes; extrapolated IC50 derived from 3 μM; read-out: IC50 (μM) of CYP isoforms, 2C9
CYP2C9, sequence (P11712 whole entry, canonical isoform): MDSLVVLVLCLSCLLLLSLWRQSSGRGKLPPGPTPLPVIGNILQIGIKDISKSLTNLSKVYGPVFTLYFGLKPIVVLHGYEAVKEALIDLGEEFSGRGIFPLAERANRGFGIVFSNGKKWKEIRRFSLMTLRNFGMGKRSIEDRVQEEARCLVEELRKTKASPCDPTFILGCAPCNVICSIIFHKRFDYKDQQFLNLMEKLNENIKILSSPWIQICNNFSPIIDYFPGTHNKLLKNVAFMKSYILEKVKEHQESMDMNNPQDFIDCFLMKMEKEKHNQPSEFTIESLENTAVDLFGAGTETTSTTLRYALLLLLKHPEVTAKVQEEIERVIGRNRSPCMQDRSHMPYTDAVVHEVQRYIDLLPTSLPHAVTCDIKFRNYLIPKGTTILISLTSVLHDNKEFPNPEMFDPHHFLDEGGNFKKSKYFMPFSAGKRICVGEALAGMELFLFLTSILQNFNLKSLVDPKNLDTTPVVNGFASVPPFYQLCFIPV
Method: (§1) The ability of substances to inhibit CYP1A2, CYP2C9, CYP2D6, CYP2C19, CYP2J2 and CYP3A4 in humans was investigated with pooled human liver microsomes as enzyme source in the presence of standard substrates (see below) which form CYP-isoform-specific metabolites.
(§2) Standard incubation mixtures comprise NADPH and substrates in 100 mM phosphate buffer (pH 7.4) in a total volume of 200 μl. Test compound are dissolved in acetonitrile. Incubated with pooled human liver microsomes at 37° C. for a defined time. The reactions are stopped by adding 100 μl of acetonitrile in which a suitable internal standard is always present. Precipitated proteins are removed by centrifugation, and the supernatants analyzed by LC-MS/MS. The data represents the extrapolated IC50 (μM) concentration derived from 3 μM.

CYP2C19 = CYP2C19 (Homo sapiens (Human), UniProt P33261); experiment: CYP inhibition assay; format: in vitro ADME; conditions: pooled human liver microsomes; extrapolated IC50 derived from 3 μM; read-out: IC50 (μM) of CYP isoforms, 2C19
CYP2C19, sequence (P33261 whole entry, canonical isoform): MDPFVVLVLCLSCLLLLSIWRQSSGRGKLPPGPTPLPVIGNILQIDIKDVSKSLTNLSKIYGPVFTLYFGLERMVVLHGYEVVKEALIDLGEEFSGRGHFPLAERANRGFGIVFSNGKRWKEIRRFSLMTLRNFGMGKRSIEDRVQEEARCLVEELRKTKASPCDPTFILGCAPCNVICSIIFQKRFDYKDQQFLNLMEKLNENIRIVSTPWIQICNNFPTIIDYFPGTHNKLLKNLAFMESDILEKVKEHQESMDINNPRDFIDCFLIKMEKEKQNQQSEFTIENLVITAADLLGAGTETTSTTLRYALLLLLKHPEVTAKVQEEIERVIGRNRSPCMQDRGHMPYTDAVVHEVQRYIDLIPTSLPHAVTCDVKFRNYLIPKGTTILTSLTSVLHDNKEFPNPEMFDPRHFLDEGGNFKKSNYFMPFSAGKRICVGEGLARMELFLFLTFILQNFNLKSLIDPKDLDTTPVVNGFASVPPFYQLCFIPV
Method: as §1, §2

CYP2D6 = CYP2D6 (Homo sapiens (Human), UniProt P10635); experiment: CYP inhibition assay; format: in vitro ADME; conditions: pooled human liver microsomes; extrapolated IC50 derived from 3 μM; read-out: IC50 (μM) of CYP isoforms, 2D6
CYP2D6, sequence (P10635 whole entry, canonical isoform): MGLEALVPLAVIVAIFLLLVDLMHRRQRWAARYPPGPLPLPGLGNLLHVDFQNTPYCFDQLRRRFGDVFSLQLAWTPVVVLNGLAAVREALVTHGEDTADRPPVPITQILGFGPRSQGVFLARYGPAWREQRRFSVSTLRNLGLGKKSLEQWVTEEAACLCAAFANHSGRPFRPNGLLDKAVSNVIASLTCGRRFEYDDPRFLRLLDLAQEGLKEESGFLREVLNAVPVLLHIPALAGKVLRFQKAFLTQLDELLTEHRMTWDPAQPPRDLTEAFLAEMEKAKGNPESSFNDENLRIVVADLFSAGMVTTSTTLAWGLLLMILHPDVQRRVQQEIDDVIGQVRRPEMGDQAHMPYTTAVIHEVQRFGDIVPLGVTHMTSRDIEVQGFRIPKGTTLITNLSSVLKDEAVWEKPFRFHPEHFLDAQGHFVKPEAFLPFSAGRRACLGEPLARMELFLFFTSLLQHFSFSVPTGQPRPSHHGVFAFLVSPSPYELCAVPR
Method: as §1, §2

CYP2J2 = CYP2J2 (Homo sapiens (Human), UniProt P51589); experiment: CYP inhibition assay; format: in vitro ADME; conditions: pooled human liver microsomes; extrapolated IC50 derived from 3 μM
CYP2J2, sequence (P51589 whole entry): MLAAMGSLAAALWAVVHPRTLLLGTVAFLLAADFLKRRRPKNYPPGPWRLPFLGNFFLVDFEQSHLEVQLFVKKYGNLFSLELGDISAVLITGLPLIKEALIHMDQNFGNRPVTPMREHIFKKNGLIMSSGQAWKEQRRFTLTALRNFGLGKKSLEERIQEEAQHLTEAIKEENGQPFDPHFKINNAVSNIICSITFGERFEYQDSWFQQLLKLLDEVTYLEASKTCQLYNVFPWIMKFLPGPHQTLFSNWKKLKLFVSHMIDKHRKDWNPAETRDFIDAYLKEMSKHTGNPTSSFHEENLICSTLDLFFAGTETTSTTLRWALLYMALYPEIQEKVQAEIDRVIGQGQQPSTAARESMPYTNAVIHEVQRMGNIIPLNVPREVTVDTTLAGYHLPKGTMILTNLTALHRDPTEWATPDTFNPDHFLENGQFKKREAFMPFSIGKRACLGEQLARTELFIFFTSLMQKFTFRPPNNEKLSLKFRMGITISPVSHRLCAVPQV
Method: as §1, §2

[2] = In vitro liver microsomal stability assay (rat); format: in vitro ADME; conditions: rat liver microsomes
Method: (§3) Liver microsomal stability assays are conducted at 1 mg per mL liver microsome protein with an NADPH in phosphate buffer (100 mM, pH 7.4). Test compounds (compound of formula B of the invention) are prepared as solutions in 20% methanol-water and added to the assay mixture (final assay concentration 1 μM) and incubated at 37° C. Aliquots (100.μ·L) are taken out at times 0, 15, and 30 minutes, and diluted with ice cold acetonitrile containing IS (200.mu·L) to stop the reactions. Samples are centrifuged at 10,000 RPM for 5 minutes to precipitate proteins. Supernatants are transferred to micro centrifuge tubes and stored at −20° C. for analysis of LC/MS/MS. The percent parent remaining of the test substance is calculated as Ratio of peak area at each time point to peak area ratio at zero min, multiplied by 100. The compound formula (B) is converted to Rivaroxaban in microsomal assay.

[3] = In vitro stability in rat plasma; format: in vitro ADME
Method: (§4) The final concentration of the test compound in the assay is 5 micromolar. […] C. The 100 microliters of aliquot at time point was removed and diluted with ice cold acetonitrile containing IS (200.mu·L) to stop the reactions. Samples are centrifuged at 10,000 RPM for 5 minutes to precipitate proteins. Supernatants are transferred to micro centrifuge tubes and stored at −20° C. for analysis of LC/MS/MS. The percent parent remaining of the test substance is calculated as ratio of peak area at each time point to peak area ratio at zero min, multiplied by 100.
(§5) API 4000, ESI Agilent 1100 column: Gemini Nx 100 mm×4.6 mm 5.1; column temperature: 30° C.; eluent A: 0.1% formic acid in water, eluent B: acetonitrile; gradient: 0-2.5 min 95% A, 5% B; 2.5-2.6 min 5% A, 95% B; 2.6-4.2 min 95% A, 5% B; flow rate: 0.8 ml/min; ESI. Q1:464.098, Q3:144.255

CYP1A2 = CYP1A2 (Homo sapiens (Human), UniProt P05177); experiment: CYP inhibition assay; format: in vitro ADME; conditions: pooled human liver microsomes; extrapolated IC50 derived from 3 μM; read-out: IC50 (μM) of CYP isoforms, 1A2
CYP1A2, sequence (P05177 whole entry, canonical isoform): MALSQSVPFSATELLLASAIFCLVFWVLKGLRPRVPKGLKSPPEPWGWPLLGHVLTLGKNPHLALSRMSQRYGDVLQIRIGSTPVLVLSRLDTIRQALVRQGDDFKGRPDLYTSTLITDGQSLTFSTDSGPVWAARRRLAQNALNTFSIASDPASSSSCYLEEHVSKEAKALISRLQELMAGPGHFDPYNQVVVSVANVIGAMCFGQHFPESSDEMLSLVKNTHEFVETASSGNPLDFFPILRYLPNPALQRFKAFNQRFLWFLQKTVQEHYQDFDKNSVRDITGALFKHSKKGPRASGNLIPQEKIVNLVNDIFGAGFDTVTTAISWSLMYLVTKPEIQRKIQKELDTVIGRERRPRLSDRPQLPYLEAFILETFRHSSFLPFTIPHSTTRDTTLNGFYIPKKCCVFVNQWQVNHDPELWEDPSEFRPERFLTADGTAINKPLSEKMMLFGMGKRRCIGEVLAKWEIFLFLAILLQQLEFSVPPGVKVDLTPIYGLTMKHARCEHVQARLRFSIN
Method: as §1
as §2, with “LC-MS/MS.” for “LC-MS/MS. The data represents the extrapolated IC50 (μM) concentration derived from 3 μM.”

[4] = In vitro liver microsomal stability assay (human); format: in vitro ADME; conditions: human liver microsomes
Method: as §3

[5] = In vitro stability in human plasma; format: in vitro ADME
Method: as §4, §5

[6] = In vitro liver microsomal stability assay (mouse); format: in vitro ADME; conditions: mouse liver microsomes
Method: as §3

[7] = In vitro stability in mouse plasma; format: in vitro ADME
Method: as §4, §5

O=C(NC[C@H]1CN(c2ccc(N3CCOCC3=O)cc2)C(=O)O1)c1ccc(Cl)s1 [Rivaroxaban, 5-chloro-N-({(5S)-2-oxo-3-[4-(3-oxomorpholin-4-yl)phenyl]-1,3-oxazolidin-5-yl}methyl)thiophene-2-carboxamide]
Mean (ng) Urine ([1]; 120 h): BLQ | Mean (ng) Urine ([1]; 144 h): BLQ | concentration at 144 h ([1]; male, Wistar, rat, faeces, iv, 1 mg/kg): 16.8 ng/g | IC50 (CYP2C9): 16.7 µM | IC50 (CYP2C19): 13.2 µM | IC50 (CYP2D6): 13.2 µM | IC50 (μM) of CYP isoforms, 2J2 (CYP2J2): No inhibition | % metabolised [2]: 99.98% | Observation (metabolism; for Test Product: of the formed rivaroxaban) [2]: High | % Parent remaining(rat) ([2]; 0 min): 100% | % Parent remaining(rat) ([2]; 15 min): 0.01% | % Parent remaining(rat) ([2]; 30 min): 0.02% | Conversion: unchanged, stable in plasma [3]: 88.4%, | % Parent remaining(rat) ([3]; 0 min): 100% | % Parent remaining(rat) ([3]; 30 min): 82.35% | % Parent remaining(rat) ([3]; 60 min): 88.4% | IC50 (CYP1A2): 18.9 µM | % metabolised [4]: 99.99% | Observation (metabolism; for Test Product: of the formed rivaroxaban) [4]: High | % Parent remaining (Human) ([4]; 0 min): 100% | % Parent remaining (Human) ([4]; 15 min): 0.01% | % Parent remaining (Human) ([4]; 30 min): 0.01% | Conversion: unchanged, stable in plasma [5]: 99.99%, | % Parent remaining (Human) ([5]; 0 min): 100% | % Parent remaining (Human) ([5]; 30 min): 100% | % Parent remaining (Human) ([5]; 60 min): 99.68% | % metabolised [6]: 99.98% | Observation (metabolism; for Test Product: of the formed rivaroxaban) [6]: High | % Parent remaining(Mouse) ([6]; 0 min): 100% | % Parent remaining(Mouse) ([6]; 15 min): 0.03% | % Parent remaining(Mouse) ([6]; 30 min): 0.02% | % Parent remaining(Mouse) ([7]; 0 min): 100% | % Parent remaining(Mouse) ([7]; 30 min): 100% | % Parent remaining(Mouse) ([7]; 60 min): 100%
